Reference: patent publication US20240270821A1, “GIP/GLP1/GCG TRI-RECEPTOR AGONISTS AND USES THEREOF” (priority 2023, published 2024)
Positions count from the first letter of the chain named. Starred links: 1 amine or outer side, 2 acyl side, 3 side chain; linkers in the order of their positions; H or OH if unused. Non-standard residues stand in square brackets, D forms with d. Groups on a side chain read outwards from the residue. No end group written: not given here. *: point of attachment. C20 diacid = O=C(O)CCCCCCCCCCCCCCCCCCC(=O)*; C18 diacid = O=C(O)CCCCCCCCCCCCCCCCC(=O)*; αMePhe(2-F) = C[C@](N)(Cc1ccccc1F)C(=O)O; γGlu = O=C(O)[C@H](CCC(=O)[*:2])N[*:1]; NMeY = CN[C@@H](Cc1ccc(O)cc1)C(=O)O; αMe4Pal = C[C@](N)(Cc1ccncc1)C(=O)O; αMeF = C[C@](N)(Cc1ccccc1)C(=O)O; 4Pal = N[C@@H](Cc1ccncc1)C(=O)O; αMeL = CC(C)C[C@](C)(N)C(=O)O; Orn = NCCC[C@H](N)C(=O)O; Dab = NCC[C@H](N)C(=O)O; AEEA = NCCOCCOCC(=O)O; Aib = CC(C)(N)C(=O)O

T1: hGIPR (Homo sapiens, UniProt P48546)
T1 sequence (P48546 22-466): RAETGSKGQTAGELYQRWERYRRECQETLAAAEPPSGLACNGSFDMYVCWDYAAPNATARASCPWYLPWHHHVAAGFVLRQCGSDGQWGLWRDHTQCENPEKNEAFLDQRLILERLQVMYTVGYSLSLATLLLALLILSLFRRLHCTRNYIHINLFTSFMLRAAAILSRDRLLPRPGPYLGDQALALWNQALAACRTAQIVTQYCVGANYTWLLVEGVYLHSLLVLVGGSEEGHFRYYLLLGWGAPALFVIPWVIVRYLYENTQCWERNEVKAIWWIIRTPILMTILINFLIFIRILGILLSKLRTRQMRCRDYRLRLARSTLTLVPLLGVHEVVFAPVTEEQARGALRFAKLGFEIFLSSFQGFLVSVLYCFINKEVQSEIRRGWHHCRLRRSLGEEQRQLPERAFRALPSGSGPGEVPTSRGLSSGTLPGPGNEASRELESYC

T2: human GIP receptor (human) (UniProt P48546)
T2 sequence (looked up): T1 sequence (P48546 22-466)

B1: Example 293 (peptide)
chain: Y[Aib]QGT[αMePhe(2-F)]TSDYSILLDKIAQK([AEEA-γGlu-C20 diacid])AFIEYLLEGGPSSGEPPPSEG-NH2
B2: Example 290 (peptide)
chain: HXQGTXTSDYSILLDKKAAXAFIEYLIETGPSSGEPPPSEG
modifications: not fully specified; synthetic construct; SITE 2: note = 2-Aminoisobutyric Acid; SITE 6: note = alpha-methyl-2-fluoro-L-phenylalanine; SITE 17: note = Lysine is chemically modified through conjugation of the epsilon-amino group of the Lysine side chain with (2-[2-(2-Amino-ethoxy)-ethoxy]-acetyl)-(gamma-Glu)-CO-(CH2) 18-
B3: Example 294 (peptide)
chain: B2 chain with H1Y, X6F, L13X, I27L, T29G
modifications: synthetic construct; SITE 2: note = 2-Aminoisobutyric Acid; SITE 13: note = alpha-methyl-leucine; SITE 17: note = Lysine is chemically modified through conjugation of the epsilon-amino group of the Lysine side chain with (2-[2-(2-Amino-ethoxy)-ethoxy]-acetyl)2-(gamma-Glu)-CO-(CH2 )18-CO2H; SITE 20:
B4: Example 297 (peptide)
chain: [NMeY][Aib]QGT[αMeF]TSDYSSLLDKIAAK([AEEA-AEEA-γGlu-C20 diacid])AFIEYLLEGGPSSGEPPPSEG-NH2

Tests used:
[1] = biological target: Pro-Link-tagged Human GLP-1R (human) (UniProt P43220); experiment: cell-based or functional assay
Pro-Link-tagged Human GLP-1R (human), sequence (P43220 24-463): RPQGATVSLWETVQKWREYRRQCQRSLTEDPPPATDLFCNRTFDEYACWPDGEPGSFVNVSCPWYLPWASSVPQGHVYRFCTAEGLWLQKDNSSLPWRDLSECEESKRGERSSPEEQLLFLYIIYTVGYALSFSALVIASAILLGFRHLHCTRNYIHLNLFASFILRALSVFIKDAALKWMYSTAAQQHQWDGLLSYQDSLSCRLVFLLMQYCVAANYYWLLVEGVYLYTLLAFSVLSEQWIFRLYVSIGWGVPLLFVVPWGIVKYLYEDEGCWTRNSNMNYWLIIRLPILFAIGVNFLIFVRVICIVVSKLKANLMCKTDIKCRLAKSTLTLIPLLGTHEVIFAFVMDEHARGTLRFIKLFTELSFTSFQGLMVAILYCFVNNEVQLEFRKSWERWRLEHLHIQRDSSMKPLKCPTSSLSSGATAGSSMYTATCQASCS

hGLP-1R [2] = biological target: T3, hGLP-1R (Homo sapiens, UniProt P43220); experiment: Functional cAMP activation in the presence of 0.1% casein (no HSA); type: cell-based; conditions: in the presence of 0.1% casein (no HSA); geometric mean; read-out: Relative cAMP EC50, hGLP-1R;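 note: intracellular cAMP rise after 30 min at 37 °C read by HTRF, normalized between buffer only (0%) and maximal control ligand (100%), four-parameter variable-slope fit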
T3 sequence (P43220 24-463): as above

hGcgR = hGcgR (Homo sapiens, UniProt P47871); experiment: as above; type: cell-based; conditions: in the presence of 0.1% casein (no HSA); geometric mean; read-out: Relative cAMP EC50, hGcgR;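 note: intracellular cAMP rise after 30 min at 37 °C, read by HTRF against a cAMP standard curve, scaled from buffer only (0%) to maximal control ligand response (100%)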
hGcgR, sequence (P47871 26-477): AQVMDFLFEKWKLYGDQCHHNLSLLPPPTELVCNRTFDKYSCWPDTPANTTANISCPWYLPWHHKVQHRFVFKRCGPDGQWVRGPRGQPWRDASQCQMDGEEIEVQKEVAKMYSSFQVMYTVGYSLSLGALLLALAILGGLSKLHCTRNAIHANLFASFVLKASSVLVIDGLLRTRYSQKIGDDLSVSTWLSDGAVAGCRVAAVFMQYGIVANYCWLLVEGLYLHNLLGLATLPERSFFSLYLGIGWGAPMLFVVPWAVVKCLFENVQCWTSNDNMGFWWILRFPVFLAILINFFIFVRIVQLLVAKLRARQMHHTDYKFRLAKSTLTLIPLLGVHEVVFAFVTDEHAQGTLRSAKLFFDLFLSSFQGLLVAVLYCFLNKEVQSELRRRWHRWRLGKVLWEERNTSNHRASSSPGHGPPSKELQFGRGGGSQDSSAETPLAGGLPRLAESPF

hGIPR [3] = biological target: T1, hGIPR; experiment: as above; type: cell-based; conditions: in the presence of 0.1% casein (no HSA); geometric mean; read-out: Relative cAMP EC50, hGIPR
human GLP1-R = human GLP1-R (Homo sapiens, UniProt P43220); experiment: GLP1-R internalization assay in HEK293 cells; type: cell-based; conditions: for EC50: HEK293 cells expressing SNAP-GLP-1R, read-out: GLP1R Internalization EC50; for Internalization % TOP: normalized to maximum concentration of GLP-1 (100%)
human GLP1-R, sequence (P43220 24-463): as the sequence (P43220 24-463) above

hGLP-1R [4] = biological target: T3, hGLP-1R; experiment: Functional cAMP activity in the presence of 1% HSA; type: cell-based; conditions: read-out: cAMP Rel EC50, hGLP-1R
[5] = system: Intestinal organoid from Göttingen minipig jejunum tissue, 2D monolayer; experiment: Cell based in vitro permeability (Papp) assay; type: in vitro ADME
Procedure, shortened: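 2D monolayers derived from Göttingen minipig jejunal organoids on transwell inserts. Basal samples collected at 20 min in the presence of C10. Peptide in apical and basal compartments quantified by LC/MS to give Papp.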

human GcgR = human GcgR (Homo sapiens, UniProt P47871); experiment: Functional cAMP activity in the presence of 1% HSA; type: cell-based; conditions: read-out: cAMP Rel EC50, hGcgR
human GcgR, sequence (P47871 26-477): as the sequence (P47871 26-477) above

hGIPR [6] = biological target: T1, hGIPR; experiment: Functional cAMP activity in the presence of 1% HSA; type: cell-based; conditions: read-out: cAMP Rel EC50, hGIPR
[7] = biological target: human glucagon receptor (human) (UniProt P47871); experiment: cell-based or functional assay
human glucagon receptor (human), sequence (P47871 26-477): as above

[8] = biological target: T2, human GIP receptor (human); experiment: cell-based or functional assay
hGLP-1R [9] = biological target: T3, hGLP-1R; experiment: cell-based or functional assay
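Throughout, for Relative cAMP EC50, hGIPR: intracellular cAMP rise after 30 min at 37 °C read by HTRF against a standard curve, scaled between buffer alone (0%) and top control ligand concentration (100%), four-parameter fit.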

Molecule | % Stimulation Max [1] | EC50 (hGLP-1R [2]) | EC50 (hGcgR) | EC50 (hGIPR [3]) | EC50 (human GLP1-R) | Internalization % TOP (human GLP1-R) | EC50 (hGLP-1R [4]) | Relative Papp (Compared to internal standard) [5] | EC50 (human GcgR) | EC50 (hGIPR [6]) | Relative cAMP EC50 [7] | cAMP Rel EC50 (in the presence of 1% HSA) [7] | Relative cAMP EC50 [8] | cAMP Rel EC50 (in the presence of 1% HSA) [8] | hGLP1R β-arrestin Rel EC50 [1] | Relative cAMP EC50 (hGLP-1R [9]) | cAMP Rel EC50 (in the presence of 1% HSA) (hGLP-1R [9]) | cAMP Rel EC50 (1% HSA) [7] | cAMP Rel EC50 (1% HSA) [8] | cAMP Rel EC50 (1% HSA) (hGLP-1R [9])
Tirzepatide (peptide) | 10.5% | – | – | – | – | – | – | – | – | – | – | – | – | – | – | – | – | – | – | –
H-Y[Aib]QGTFTSDFS[Orn][αMeL]LDKK([AEEA-AEEA-γGlu-C18 diacid])AQ[Aib]AFIEYLLE[Aib]GHSSGAPPPSGE-NH2 [Example 186] | – | 5.26 nM | 4.67 nM | 0.107 nM | 124 nM | 41.1% | 690 nM | 0.10 | 1280 nM | 18 nM | – | – | – | – | – | – | – | – | – | –
H-Y[Aib]QGTFTSD[4Pal]S[Dab][αMeL]LDKK([AEEA-γGlu-C18 diacid])AQ[Aib]AFIEYLIE[Aib]GESSGAPPPSGS-NH2 [Example 188] | – | 3.43 nM | 10.8 nM | 0.193 nM | 44.7 nM | 40.2% | 436 nM | 0.46 | 2920 nM | 43.8 nM | – | – | – | – | – | – | – | – | – | –
H-Y[Aib]QGTFTSDFS[Orn][αMeL]LDKK([AEEA-γGlu-C18 diacid])AQ[Aib]AFIEWLLEGGSSSGAPPPSGT-NH2 [Example 174] | – | 2.33 nM | 4.24 nM | 0.198 nM | 123 nM | 52.8% | 208 nM | 0.12 | 307 nM | 20.8 nM | – | – | – | – | – | – | – | – | – | –
H-Y[Aib]QGTFTSDFS[Orn][αMeL]LDKK([AEEA-AEEA-γGlu-C18 diacid])AQ[Aib]AFIEYLLE[Aib]G[4Pal]SSGAPPPSGE-NH2 [Example 189] | – | 4.46 nM | 6.28 nM | 0.0695 nM | 103 nM | 45.8% | 423 nM | 0.17 | 853 nM | 22.2 nM | – | – | – | – | – | – | – | – | – | –
H-Y[Aib]QGTFTSDFS[Orn][αMeL]LDKK([AEEA-γGlu-C18 diacid])AQ[Aib]AFIEYLLE[Aib]GHSSGAPPPSGS-NH2 [Example 241] | – | 2.3 nM | 2.71 nM | 0.0748 nM | 64.4 nM | 37.6% | 264 nM | 0.10 | 543 nM | 9.36 nM | – | – | – | – | – | – | – | – | – | –
Y[Aib]QGTFTSDFS[Orn][αMeL]LDKK([AEEA-AEEA-γGlu-C18 diacid])AQ[Aib]AFIEYLLE[dA]GPSSGHPPPSGH-NH2 [Example 255] | – | 1.9 nM | 5.48 nM | 0.107 nM | 47.1 nM | 51.8% | 272 nM | 0.23 | 883 nM | 21.9 nM | – | – | – | – | – | – | – | – | – | –
CC[C@H](C)[C@H](NC(=O)[C@H](Cc1ccccc1)NC(=O)[C@H](C)NC(=O)C(C)(C)NC(=O)[C@H](CCC(N)=O)NC(=O)[C@H](C)NC(=O)[C@H](CCCCNC(=O)COCCOCCNC(=O)CC[C@H](NC(=O)CCCCCCCCCCCCCCCCC(=O)O)C(=O)O)NC(=O)[C@H](CCCCN)NC(=O)[C@H](CC(=O)O)NC(=O)[C@H](CC(C)C)NC(=O)[C@](C)(CC(C)C)NC(=O)[C@H](CCCN)NC(=O)[C@H](CO)NC(=O)[C@H](Cc1ccccc1)NC(=O)[C@H](CC(=O)O)NC(=O)[C@H](CO)NC(=O)[C@@H](NC(=O)[C@H](Cc1ccccc1)NC(=O)[C@@H](NC(=O)CNC(=O)[C@H](CCC(N)=O)NC(=O)C(C)(C)NC(=O)[C@@H](N)Cc1ccc(O)cc1)[C@@H](C)O)[C@@H](C)O)C(=O)N[C@@H](CCC(=O)O)C(=O)N[C@@H](Cc1ccc(O)cc1)C(=O)N[C@@H](CC(C)C)C(=O)N[C@@H](CC(C)C)C(=O)N[C@@H](CCC(=O)O)C(=O)N[C@H](C)C(=O)NCC(=O)N1CCC[C@H]1C(=O)N[C@@H](CO)C(=O)N[C@@H](CO)C(=O)NCC(=O)N[C@@H](C)C(=O)N1CCC[C@H]1C(=O)N1CCC[C@H]1C(=O)N1CCC[C@H]1C(=O)N[C@@H](CO)C(=O)NCC(=O)N[C@H](C(N)=O)[C@@H](C)O [Example 210] | – | 1.44 nM | 2.81 nM | 0.153 nM | 80.2 nM | 49.2% | 264 nM | 0.06 | 501 nM | 23.5 nM | – | – | – | – | – | – | – | – | – | –
H-Y[Aib]QGTFTSD[4Pal]SR[αMeL]LDKK([AEEA-γGlu-C18 diacid])AQ[αMe4Pal]AFIEYLIE[Aib]GESSGAPPPSGS-NH2 [Example 224] | – | 1.89 nM | 1.91 nM | 0.114 nM | 32.2 nM | 61.9% | 333 nM | 0.35 | 452 nM | 21.5 nM | – | – | – | – | – | – | – | – | – | –
B1 | 54.6% | – | – | – | – | – | – | – | – | – | 4.01 nM | 1740 nM | 0.0587 nM | 9.63 nM | 11.9 nM | 0.994 nM | 295 nM | – | – | –
B2 | 83.5% | – | – | – | – | – | – | – | – | – | 2.68 nM | 878 nM | 0.43 nM | 53.4 nM | 3.94 nM | 0.34 nM | 90 nM | – | – | –
B3 | 35.3% | – | – | – | – | – | – | – | – | – | 1.07 nM | 518 nM | 0.318 nM | 54.1 nM | 27.7 nM | 2.16 nM | 554 nM | – | – | –
B4 | 33.5% | – | – | – | – | – | – | – | – | – | 3.26 nM | – | 0.626 nM | – | 60.2 nM | 2.96 nM | – | 2320 nM | 325 nM | 1130 nM
